Experimental data taken from patent US20090306576A1, “System for Transmembrane Administration of a Permeant and Method for Administering a Permeant” (Pantec Biosolutions AG, priority 2005, published 2009).

Test: Serum concentration over time after transdermal application of the drug patch on microporated skin (FIG. 10a, 10b)
Type: in vivo
Conditions: over a short period of about two hours
Source text: The drug is entering the permeation surface by passive diffusion. The amount of drug entering the permeation surface is mainly determined by the permeation surface A(t) over time, as long as the patch 5 provides a sufficient amount of drug. Preferably the patch 5 is able to provide much larger quantities of drug than the permeation surface A(t) is able to absorb. Preferably the patch 5 is able to provide a sufficient concentration level of the permeant at the permeation surface over a period of time during with the permeant is applied. Therefore, the serum concentration as a function of time can be determined by an appropriate poration of the skin 1 with an initial microporation.
FIG. 10a to 10b show the administration of the same drug, for example 100 mg acetylsalicylic acid, the drug being arranged on the skin 1 as disclosed in FIG. 3c. Depending on the permeation surface A(t) as a function of time, the level of the serum concentration as well as the time period within which the drug is released, can be predescribed. In FIG. 10a the permeation surface A(t), not shown in detail, is chosen such that the maximal serum concentration is about 25 g/l over a short period of time of about two hours. […]

maximal serum concentration (FIG. 10a, 100 mg acetylsalicylic acid on porated skin (transdermal application TD)): about 25 g/l
maximal serum concentration (FIG. 10b, fast application (turbo), 100 mg acetylsalicylic acid on porated skin): about 30 g/l
SMILES: CC(=O)Oc1ccccc1C(=O)O [acetylsalicylic acid]
